17 compounds from PubChem BioAssay AID256 (DTP/NCI, 2004) can be followed below.

Values joined by “and” are separate entries in the source; they are usually repeats but may differ in a detail not shown here. Equal values may be shown once. Toxic doses and inconclusive results are not listed.

The test system of this assay is CD2F1 mice, L1210 leukemia ip, survival T/C. The experiment in a line: NCI In Vivo Anticancer Drug Screen. Data for tumor model L1210 Leukemia (intraperitoneal) in CD2F1 (CDF1) mice. Particulars: higher = longer survival. Put shortly: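 Each value reflects a quotient of treated over vehicle control outcomes in mice with a transplanted tumor.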
Setting [1] is: endpoint: mean survival time, dose: 100.0 mg/kg/injection, schedule: Q04DX003 (ip), vehicle: saline with Tween-80.
Where [2] appears, read: endpoint: mean survival time, dose: 200.0 mg/kg/injection, schedule: Q04DX003 (ip), vehicle: saline with Tween-80.
Where [3] appears, read: endpoint: mean survival time, dose: 400.0 mg/kg/injection, schedule: Q04DX003 (ip), vehicle: saline with Tween-80.
Setting [4] is: endpoint: mean survival time, dose: 3.13 mg/kg/injection, schedule: Q04DX003 (ip), vehicle: distilled water + Tween-80.
[5] abbreviates: endpoint: mean survival time, dose: 6.25 mg/kg/injection, schedule: Q04DX003 (ip), vehicle: distilled water + Tween-80.
[6] abbreviates: endpoint: mean survival time, dose: 12.5 mg/kg/injection, schedule: Q04DX003 (ip), vehicle: distilled water + Tween-80.
Setting [7] is: endpoint: mean survival time, dose: 25.0 mg/kg/injection, schedule: Q04DX003 (ip), vehicle: distilled water + Tween-80.
Setting [8] is: endpoint: mean survival time, dose: 50.0 mg/kg/injection, schedule: Q04DX003 (ip), vehicle: distilled water + Tween-80.
[9] abbreviates: endpoint: mean survival time, dose: 100.0 mg/kg/injection, schedule: Q01DX009 (ip), vehicle: saline with Tween-80.
Setting [10] is: endpoint: mean survival time, dose: 200.0 mg/kg/injection, schedule: Q01DX009 (ip), vehicle: saline with Tween-80.
[11] abbreviates: endpoint: mean survival time, dose: 400.0 mg/kg/injection, schedule: Q01DX009 (ip), vehicle: saline with Tween-80.
Setting [12] is: endpoint: mean survival time, dose: 50.0 mg/kg/injection, schedule: Q04DX003 (ip), vehicle: saline with Tween-80.

With `COc1cccc2c1C(=O)c1c(O)c3c(c(O)c1C2=O)C[C@@](O)(/C(C)=N/NC(=O)c1cccc([N+](=O)[O-])c1)C[C@@H]3OC1CC(N)C(O)C(C)O1` (stereo not given in full), the T/C (endpoint: mean survival time, dose: 2.0 mg/kg/injection, schedule: Q01DX009 (ip), vehicle: water) was 121 % of control; the T/C (endpoint: mean survival time, dose: 4.0 mg/kg/injection, schedule: Q01DX009 (ip), vehicle: water) is 121 % of control; the T/C (endpoint: mean survival time, dose: 16.0 mg/kg/injection, schedule: Q01DX009 (ip), vehicle: water) was 98 % of control.

As to `Cc1cccnc1N.[Cl-].[Cl-].[Cl-].[Cl-].[Pt+2]`, the T/C is, setting by setting: (endpoint: mean survival time, dose: 21.88 mg/kg/injection, schedule: Q04DX003 (ip), vehicle: saline with Tween-80) 104 % of control; (endpoint: mean survival time, dose: 43.75 mg/kg/injection, schedule: Q04DX003 (ip), vehicle: saline with Tween-80) 110 % of control.

In the case of `Cc1ccc(NN=O)nc1`, the T/C reads like this: (endpoint: median survival time, dose: 1.5 mg/kg/injection, schedule: Q01DX009 (ip), vehicle: water) 110 % of control; (endpoint: median survival time, dose: 1.56 mg/kg/injection, schedule: Q01DX009 (ip), vehicle: water) 114 % of control; (endpoint: median survival time, dose: 3.0 mg/kg/injection, schedule: Q01DX009 (ip), vehicle: water) 114 % of control; (endpoint: median survival time, dose: 3.12 mg/kg/injection, schedule: Q01DX009 (ip), vehicle: water) 123 % of control; (endpoint: median survival time, dose: 12.0 mg/kg/injection, schedule: Q01DX009 (ip), vehicle: water) 156 % of control; (endpoint: median survival time, dose: 24.0 mg/kg/injection, schedule: Q01DX009 (ip), vehicle: water) 115 % of control and 106 % of control.

For `Nc1cccc2scnc12` (tested in a mixture with another compound), the T/C is, setting by setting: under setting [1], 104 % of control; under setting [2], 98 % of control; under setting [3], 95 % of control.

As to `[Br][Pt+2][Br].[NH-]c1cccc(F)c1.[NH-]c1cccc(F)c1`, the T/C by setting is: under setting [4], 97 % of control; under setting [5], 103 % of control; under setting [6], 101 % of control; under setting [7], 104 % of control; under setting [8], 109 % of control; (endpoint: mean survival time, dose: 100.0 mg/kg/injection, schedule: Q04DX003 (ip), vehicle: distilled water + Tween-80) 107 % of control.

On to `O=C1c2ccccc2C(=O)N1c1ccccc1-c1ccccc1`, for which the T/C under setting [1] is 100 % of control, the T/C under setting [2] is 92 % of control and the T/C under setting [3] is 100 % of control.

Consider `Cc1cccc2c1NC(=O)C2=O`, for which the T/C (endpoint: median survival time, dose: 100.0 mg/kg/injection, schedule: Q04DX002 (ip), vehicle: saline with Tween-80) is 94 % of control and the T/C (endpoint: median survival time, dose: 400.0 mg/kg/injection, schedule: Q04DX002 (ip), vehicle: saline with Tween-80) was 105 % of control.

As to `c1ccc(-c2cc(-c3ccccc3)n(-c3ccccc3)c2-c2ccccc2)cc1`, the T/C was 88 % of control under setting [9], 94 % of control under setting [10] and 88 % of control under setting [11].

As to `O=C(CNC(=O)Nc1ccc(Cl)c(Cl)c1)NNC(=O)Nc1ccc(F)c(Cl)c1`, the T/C is 96 % of control under setting [9], 95 % of control under setting [10] and 91 % of control under setting [11].

On to `CCN(CC)CCN1C(=O)c2cccc3cccc(c23)C1=O`, for which the T/C (endpoint: mean survival time, dose: 25.0 mg/kg/injection, schedule: Q04DX003 (ip), vehicle: saline) is 102 % of control; the T/C (endpoint: mean survival time, dose: 50.0 mg/kg/injection, schedule: Q04DX003 (ip), vehicle: saline) is 98 % of control; the T/C (endpoint: mean survival time, dose: 100.0 mg/kg/injection, schedule: Q04DX003 (ip), vehicle: saline) is 102 % of control.

Regarding `CCCCCC(=O)N1CCOCC1`, the T/C runs as follows: (endpoint: mean survival time, dose: 25.0 mg/kg/injection, schedule: Q04DX003 (ip), vehicle: saline with Tween-80) 98 % of control; under setting [12], 98 % of control; under setting [1], 104 % of control and 112 % of control; under setting [2], 102 % of control; under setting [3], 100 % of control.

In the case of `Nc1nc(N)c2[nH]cnc2n1`, the T/C runs as follows: (endpoint: mean survival time, dose: 12.5 mg/kg/injection, schedule: Q01DX005 (ip), vehicle: Klucel (hydroxypropylcellulose) (HPC)) 101 % of control; (endpoint: mean survival time, dose: 25.0 mg/kg/injection, schedule: Q01DX005 (ip), vehicle: Klucel (hydroxypropylcellulose) (HPC)) 101 % of control; (endpoint: mean survival time, dose: 50.0 mg/kg/injection, schedule: Q01DX005 (ip), vehicle: Klucel (hydroxypropylcellulose) (HPC)) 106 % of control; under setting [12], 95 % of control; (endpoint: mean survival time, dose: 100.0 mg/kg/injection, schedule: Q01DX005 (ip), vehicle: Klucel (hydroxypropylcellulose) (HPC)) 110 % of control; under setting [1], 95 % of control. Also, the T/C is 97 % of control under setting [2] and 97 % of control under setting [3].

`S=c1sc2ccccc2n1CN1CCOCC1`: the T/C is 97 % of control and 104 % of control (endpoint: median survival time, dose: 12.5 mg/kg/injection, schedule: Q01DX009 (ip), vehicle: saline with Tween-80); 100 % of control (endpoint: median survival time, dose: 25.0 mg/kg/injection, schedule: Q01DX009 (ip), vehicle: saline with Tween-80); 101 % of control and 106 % of control (endpoint: median survival time, dose: 50.0 mg/kg/injection, schedule: Q01DX009 (ip), vehicle: saline with Tween-80); 101 % of control and 108 % of control (endpoint: median survival time, dose: 100.0 mg/kg/injection, schedule: Q01DX009 (ip), vehicle: saline with Tween-80); 98 % of control and 100 % of control (endpoint: median survival time, dose: 200.0 mg/kg/injection, schedule: Q01DX009 (ip), vehicle: saline with Tween-80).

On to `CNC(=O)OCc1nc(SC)n(C)c1COC(=O)NC`, for which the T/C (endpoint: median survival time, dose: 12.5 mg/kg/injection, schedule: Q01DX005 (ip), vehicle: saline) was 103 % of control; the T/C (endpoint: median survival time, dose: 12.5 mg/kg/injection, schedule: Q01DX005 (ip), vehicle: suspension in saline) was 111 % of control; the T/C (endpoint: median survival time, dose: 25.0 mg/kg/injection, schedule: Q01DX005 (ip), vehicle: saline) is 111 % of control; the T/C (endpoint: median survival time, dose: 25.0 mg/kg/injection, schedule: Q01DX005 (ip), vehicle: suspension in saline) is 114 % of control; the T/C (endpoint: median survival time, dose: 65.0 mg/kg/injection, schedule: Q01DX005 (ip), vehicle: saline) was 175 % of control; the T/C (endpoint: median survival time, dose: 200.0 mg/kg/injection, schedule: Q01DX005 (ip), vehicle: suspension in saline) was 87 % of control.

Turning to `O=S(=O)(O)O.[NH-]CC(=O)O.[NH-]CC(=O)O.[NH-]CC(=O)O.[NH-]CC(=O)O.[Pt+2].[Pt+2]`, the T/C by setting is: under setting [4], 101 % of control; under setting [5], 104 % of control; under setting [6], 97 % of control; under setting [7], 112 % of control; under setting [8], 98 % of control.

Turning to `CN(C)/C=C(\C#N)C=O`, the T/C runs as follows: (endpoint: mean survival time, dose: 18.75 mg/kg/injection, schedule: Q01DX009 (ip), vehicle: saline with Tween-80) 95 % of control; (endpoint: mean survival time, dose: 37.5 mg/kg/injection, schedule: Q01DX009 (ip), vehicle: saline with Tween-80) 101 % of control; (endpoint: mean survival time, dose: 75.0 mg/kg/injection, schedule: Q01DX009 (ip), vehicle: saline with Tween-80) 101 % of control; (endpoint: mean survival time, dose: 75.0 mg/kg/injection, schedule: Q04DX003 (ip), vehicle: saline with Tween-80) 87 % of control.

Take `Nc1ncnc2c1nc(Br)n2C1OC(CO)C(O)C1O` (stereo not given): the T/C is 95 % of control (endpoint: mean survival time, dose: 100.0 mg/kg/injection, schedule: Q04DX002 (ip), vehicle: saline with Tween-80); 98 % of control (endpoint: mean survival time, dose: 200.0 mg/kg/injection, schedule: Q04DX002 (ip), vehicle: saline with Tween-80); 98 % of control (endpoint: mean survival time, dose: 400.0 mg/kg/injection, schedule: Q04DX002 (ip), vehicle: saline with Tween-80).
